Data taken from patent US9089587B2, “Treatment of papulopustular rosacea with ivermectin” (Galderma S.A., priority 2013, dated 2015).

Columns and labels:
[1] = system: subjects with moderate or severe papulopustular rosacea; test: Study 1 and Study 2: once-daily ivermectin 1% cream vs vehicle, first part, 12 weeks (Example 3); assay type: in vivo, human
Experimental: Both studies were conducted in accordance with the ethical principles of the Declaration of Helsinki and Good Clinical Practices, and in compliance with local regulatory requirements.
Each study had three parts. In the first part of the study, subjects with PPR were treated with ivermectin 1% cream (IVM 1%) or vehicle once daily at bedtime for 12 weeks. In the second part of the study, subjects initially treated with IVM 1% once daily at bedtime continued the same treatment, while subjects treated with the vehicle once daily switched to topical treatment with azelaic acid 15% gel twice daily, in the morning and evening. The third part of the study consisted of 4 weeks safety follow-up, without treatment. […]
Efficacy assessments at each visit were the IGA of disease severity, and inflammatory lesion counts (papules and pustules) on each of the five facial regions (forehead, chin, nose, right cheek, left cheek). Safety assessments included adverse events (AEs) throughout the study, local tolerance parameters (stinging/burning, dryness, itching) at each study visit evaluated on a 4-point scale [from 0 (none) to 3 (severe)], and laboratory parameters (hematology and biochemistry) measured before and after treatment. […]

[2] = system: subjects with moderate or severe papulopustular rosacea; test: Ivermectin 1% cream vs metronidazole 0.75% cream, Period A, 16 weeks (Example 4); assay type: in vivo, human; details: week 12 (highest difference)
Excerpt: Study visits during Period A were as follows: a screening visit, and at baseline, weeks 3, 6, 9, 12 and 16.
Eligible subjects were 18 years or older, with moderate or severe papulopustular rosacea as noted by an IGA of 3 (“several small or large papules/pustules, moderate erythema”) or 4 (“numerous small and/or large papules/pustules, severe erythema”), and presenting with 15-70 facial inflammatory lesions (papules and pustules).
The subjects were instructed to maintain a consistent lifestyle throughout the study regarding rosacea triggers (i.e. avoiding environmental factors, certain foods, and excessive sun exposure).
Efficacy assessments at each visit were inflammatory lesion counts (papules and pustules) counted on five facial regions (forehead, chin, nose, right cheek, left cheek), and the Investigator's Global Assessment (IGA) of disease severity. Safety assessments included adverse events (AEs) throughout the study, local tolerance parameters (stinging/burning, dryness, itching) at each visit evaluated on a 4-point scale (from 0 (none) to 3 (severe)), and laboratory parameters measured at baseline, weeks 9 and 16. Other assessments included the subject's evaluation of rosacea improvement compared to their condition at baseline, and subject's appreciation questionnaire at the end of the study (regarding satisfaction with the study drug). […]

## 5-O-demethyl-22,23-dihydroavermectin A1a plus 5-O-demethyl-25-de(1-methylpropyl)-25-(1-methylethyl)-22,23-dihydroavermectin A1a [ivermectin]
[1]; Study 1, week 2
  median reduction from baseline in inflammatory lesion counts: about 30%
[1]; Study 2, week 2
  median reduction from baseline in inflammatory lesion counts: 27.3%
[2]
  difference in IGA success rate, ivermectin superior to metronidazole: 14.9%
